Experimental data from ChEMBL document CHEMBL4715685, “Synthetic inhibitor leads of human tropomyosin receptor kinase A (hTrkA)” (RSC Med Chem, 2020).
In brackets after ≈: the same amount, converted by molar mass.

How the values were obtained:
[1] = biological target: T1, High affinity nerve growth factor receptor (Homo sapiens, UniProt P04629)
Description: Inhibition of human TRKA kinase domain by HTRF KinEASE biochemical assay

[2] = biological target: T1, High affinity nerve growth factor receptor; remark: listed apart in the source
Description: Inhibition of human TRKA by FLIPR assay

[3] = biological target: BDNF/NT-3 growth factors receptor (Homo sapiens, UniProt Q16620)
Description: Inhibition of human TRKB by FLIPR assay

[4] = biological target: T1, High affinity nerve growth factor receptor; remark: listed apart in the source
Description: Inhibition of human TRKA at inactive state assessed as inhibition of substrate phosphorylation using fluorescently-labelled peptide as substrate by caliper assay

[5] = biological target: T1, High affinity nerve growth factor receptor; remark: listed apart in the source
Description: Inhibition of human TRKA at active state assessed as inhibition of substrate phosphorylation using fluorescently-labelled peptide as substrate by caliper assay

in vitro [6] = details: dog, liver microsomes
Description: Half-life in dog liver microsome

in vitro [7] = details: cat, liver microsomes
Description: Half-life in cat liver microsome

[8] = biological target: T1, High affinity nerve growth factor receptor; remark: listed apart in the source
Description: Inhibition of human TRKA at inactive state by kinetic based analysis

[9] = biological target: T1, High affinity nerve growth factor receptor; remark: listed apart in the source
Description: Inhibition of human TRKA at active state by kinetic based analysis

in vitro [10] = details: dog, MDCK
Description: Permeability from apical to basolateral side in dog MDCK cells

in vitro [11] = details: dog, MDCK-MDR1
Description: Permeability from basolateral to apical side in dog MDCK cells

T1 sequence (P04629 whole entry): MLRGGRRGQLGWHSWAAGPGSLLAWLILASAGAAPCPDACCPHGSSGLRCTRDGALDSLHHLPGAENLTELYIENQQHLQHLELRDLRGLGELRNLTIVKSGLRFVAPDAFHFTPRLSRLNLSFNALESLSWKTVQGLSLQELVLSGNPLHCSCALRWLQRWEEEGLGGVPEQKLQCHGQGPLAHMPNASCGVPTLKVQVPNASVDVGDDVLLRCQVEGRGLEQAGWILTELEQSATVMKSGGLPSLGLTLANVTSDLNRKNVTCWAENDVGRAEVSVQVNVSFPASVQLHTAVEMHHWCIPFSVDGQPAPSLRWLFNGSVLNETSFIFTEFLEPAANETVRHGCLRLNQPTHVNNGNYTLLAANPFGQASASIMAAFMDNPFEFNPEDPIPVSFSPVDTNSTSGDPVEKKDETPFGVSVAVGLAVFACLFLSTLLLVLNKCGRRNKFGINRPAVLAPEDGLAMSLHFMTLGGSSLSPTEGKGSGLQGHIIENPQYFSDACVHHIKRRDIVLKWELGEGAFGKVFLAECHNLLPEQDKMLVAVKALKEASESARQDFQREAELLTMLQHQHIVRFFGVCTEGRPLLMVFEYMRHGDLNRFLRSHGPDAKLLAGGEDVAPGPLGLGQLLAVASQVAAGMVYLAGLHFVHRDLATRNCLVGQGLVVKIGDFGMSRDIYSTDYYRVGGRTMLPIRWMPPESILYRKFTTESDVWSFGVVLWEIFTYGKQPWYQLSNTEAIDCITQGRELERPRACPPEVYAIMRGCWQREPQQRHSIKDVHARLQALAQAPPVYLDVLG
BDNF/NT-3 growth factors receptor, sequence (Q16620 whole entry): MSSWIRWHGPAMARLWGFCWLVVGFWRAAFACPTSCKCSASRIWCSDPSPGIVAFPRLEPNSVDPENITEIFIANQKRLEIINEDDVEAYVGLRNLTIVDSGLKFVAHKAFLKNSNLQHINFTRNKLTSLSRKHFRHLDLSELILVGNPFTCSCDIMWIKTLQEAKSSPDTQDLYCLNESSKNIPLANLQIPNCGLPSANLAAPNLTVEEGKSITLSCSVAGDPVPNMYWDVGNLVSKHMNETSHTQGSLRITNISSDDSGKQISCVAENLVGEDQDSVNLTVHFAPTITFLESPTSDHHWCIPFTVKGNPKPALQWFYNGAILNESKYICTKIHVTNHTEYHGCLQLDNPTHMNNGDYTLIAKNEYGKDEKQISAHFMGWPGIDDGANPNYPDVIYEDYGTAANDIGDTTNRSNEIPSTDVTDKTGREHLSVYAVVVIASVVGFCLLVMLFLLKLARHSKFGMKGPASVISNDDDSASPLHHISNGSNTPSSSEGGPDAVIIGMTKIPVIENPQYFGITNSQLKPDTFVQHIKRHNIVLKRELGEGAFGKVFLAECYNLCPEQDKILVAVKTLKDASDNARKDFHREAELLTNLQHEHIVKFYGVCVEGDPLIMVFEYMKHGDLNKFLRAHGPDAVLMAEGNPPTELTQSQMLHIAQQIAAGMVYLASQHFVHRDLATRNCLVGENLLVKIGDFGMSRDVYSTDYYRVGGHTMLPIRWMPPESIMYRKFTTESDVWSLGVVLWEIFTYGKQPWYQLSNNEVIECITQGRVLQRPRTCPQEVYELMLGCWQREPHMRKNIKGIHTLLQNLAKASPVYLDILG
Description for physchem: Kinetic solubility of compound

Row | IC50 [1] | IC50 [2] | IC50 [3] | IC50 [4] | IC50 [5] | half-life (in vitro [6]) | half-life (in vitro [7]) | solubility kinetic (physchem) | Ki [8] | Ki [9] | Papp A→B (in vitro [10]) | Papp B→A (in vitro [11]) | Compound
1 | 5.2 nM | 170 nM | 15900 nM | 21 nM | 45 nM | 1.35 h | 0.267 h | 12.7 µM (≈ 5.52 µg/mL) | 1 nM | 0.4 nM | 4.1 ×10⁻⁶ cm/s | 7.6 ×10⁻⁶ cm/s | O=C(Nc1ccc(N2CCOCC2)cc1N1CCOCC1)c1cnn(-c2ccccc2)n1
2 |  |  |  | 94 nM | 76 nM |  |  |  |  |  |  |  | O=C(Nc1ccc(N2CCOCC2)cc1N1CCOCC1)c1cccc(Oc2ccccc2)c1
3 | 47.1 nM | > 20000 nM | > 20000 nM |  |  | 2 h | 2 h | 15.9 µM (≈ 7.27 µg/mL) |  |  |  |  | NC(=O)c1ccc(-c2nnn(CC(=O)Nc3cc(C(F)(F)F)ccc3-n3cncn3)n2)cc1

The remaining lines, values behind:

Row | Compound | IC50 [1] | IC50 [2] | IC50 [3] | IC50 [4] | IC50 [5] | half-life (in vitro [6]) | half-life (in vitro [7]) | solubility kinetic (physchem) | Ki [8] | Ki [9] | Papp A→B (in vitro [10]) | Papp B→A (in vitro [11])
4 | COc1ccc(Cl)cc1NC(=O)Nc1ccc2nc(NC(=O)c3ccccc3)sc2c1 | 178 nM | > 20000 nM | > 20000 nM | > 10000 nM | > 10000 nM | 1.25 h | 0.933 h | 1.3 µM (≈ 0.589 µg/mL) |  |  |  | 
5 | COc1ccc(-n2ncc3c(=O)n(CC(=O)Nc4cc(C(F)(F)F)ccc4Cl)cnc32)cc1 | 102 nM | 7500 nM | > 20000 nM |  |  | 2 h | 2 h | 3.5 µM (≈ 1.67 µg/mL) |  |  | 4.8 ×10⁻⁶ cm/s | 6.4 ×10⁻⁶ cm/s
